In the experiment the test system is V79 cells. The experiment in a line: Colony formation, survival fraction of V79 cells. The class given is cell-based, Chinese hamsters. The protocol: An anti-cancer agent and a pharmaceutical composition were administered to test cells and then the cells were cultured. Then, after colonies were formed, the number of colonies was counted. Here, samples in which the concentration of the anti-cancer agent to be administered was varied were prepared, and in each sample, the survival fraction of the cells compared with the case where cells were cultured without administration of the pharmaceutical composition was measured. Regarding the type of anti-cancer agent to be administered, a predetermined anti-cancer agent was selected depending on the type of administration target cells. Note that cells that were cultured without administration of the pharmaceutical composition and the anti-cancer agent were used as a control. Hereinafter, these steps will be described.
Here, CHO cells, V79 cells, and canine-derived cancer cells were prepared as the test cells. The CHO cells are ovarian cells derived from Chinese hamsters, and the V79 cells are fibroblasts derived from the lungs of Chinese hamsters. Melanoma developing cells (CML6M) and soft tissue sarcoma developing cells (STSA-1) were used as the cancer cells.
The cancer cells were prepared by being cultured using an αMEM culture medium supplemented with 10% serum and an antibiotic. The cancer cells were prepared such that, when the concentration of the cells in a cell suspension obtained by subjecting the cultured cells to PBS washing and trypsin treatment, the concentration was within a predetermined concentration range. Here, the predetermined concentration ranges were 300 cells/well, 100 to 150 cells/well, and 500 to 1000 cells/well for the CHO/V79 cells, the melanoma cells, and the soft tissue sarcoma cells, respectively.
Next, the cancer cells were cultured in culture environments to which the anti-cancer agent was added at various concentrations, and were then allowed to form colonies. The culture periods for colony formation were a week, 10 days, and 14 days for CHO and V79, melanoma, and soft tissue sarcoma, respectively. After colonies were formed, washing using a physiological saline solution, fixation using 100% ethanol, and staining using 0.1% crystal violet were performed, and then the number of colonies per well was counted under a microscope. Note that, here, the colony was defined as containing 50 or more cells. […]
A graph with the horizontal axis representing the concentration of the anti-cancer agent and the vertical axis representing the survival fraction was created by plotting the survival fraction measurement results relative to the SQAP administration amounts, and the effect of the addition of SQAP on the survival fraction was examined. Hereinafter, the results from each anti-cancer agent will be shown in a table and described. […]
V79 cells were used as the cells, and cisplatin was used as the anti-cancer agent. The cisplatin was administered at concentrations of 0 μg/mL, 0.1 μg/mL, 0.2 μg/mL, 0.3 μg/mL, 0.4 μg/mL, and 0.5 μg/mL.
V79 cells were used as the cells, and camptothecin was used as the anti-cancer agent. The amount of the camptothecin was set to 0 nM, 5 nM, 10 nM, 15 nM, and 20 nM.
V79 cells were used as the cells, and mitomycin C was used as the anti-cancer agent. The amount of MMC was set to 0 nM, 100 nM, 200 nM, 300 nM, 400 nM, and 500 nM. […]
V79 cells were used as the cells, and taxol was used as the anti-cancer agent. The amount of the taxol was set to 0 nM, 10 nM, 20 nM, and 30 nM.
V79 cells were used as the cells, and MMS was used as the anti-cancer agent. The amount of the MMS was set to 0 μM, 10 μM, 20 μM, 30 μM, and 40 μM.
In the above examples, the anti-cancer agent and the pharmaceutical composition were administered to the test cells and then the cells were cultured. […]

The results in this text go back to patent US20240131044A1, “METHOD FOR TREATING CANCER” (M.T.3, Inc., priority 2022, published 2024).

For the molecule `CCCCCCCCCCCCCCCCCC(=O)OCCCO[C@H]1O[C@H](CS(=O)(=O)O)[C@@H](O)[C@H](O)[C@H]1O` [SQAP, sulfoquinovosylacylpropanediol], the survival fraction result (MMS 40 μM + SQAP 10 μM) is recorded as “about 7%”; the survival fraction entry (MMS 40 μM + SQAP 20 μM) is recorded as “less than 1%”; the survival fraction (SQAP 10 μM alone) stood at 10%; the survival fraction (SQAP 20 μM alone) stood at 10%; the survival fraction result (bleomycin 15 nM + SQAP 10 μM) was “about 20%”; the survival fraction entry (bleomycin 15 nM + SQAP 20 μM) is “about 2%”. The survival fraction result (camptothecin 20 nM + SQAP 10 μM) was “about 12%”; the survival fraction entry (camptothecin 20 nM + SQAP 20 μM) was “about 3%”; the survival fraction result (cisplatin 0.3 μg/mL + SQAP 10 μM (b65 prints 1011M)) was “about 8%”; the survival fraction result (cisplatin 0.3 μg/mL + SQAP 20 μM (b65 prints 20 without unit)) is recorded as “about 5%”; the survival fraction result (etoposide 30 nM + SQAP 10 μM) was “about 9%”; the survival fraction result (etoposide 30 nM + SQAP 20 μM) is on record as “about 8%”. For the same molecule, the survival fraction entry is reported as “about 2%” (mitomycin C 500 nM + SQAP 10 μM), “about 1.8%” (mitomycin C 500 nM + SQAP 20 μM), “about 2%” (taxol 30 nM + SQAP 10 μM) and “about 2%” (taxol 30 nM + SQAP 20 μM). The “survival fraction of cells after culture, SQAP and anti-cancer agent in combination compared with SQAP alone” value (any anti-cancer agent of the examples) is listed as “decreased”.
